Experiments:
[1] = biological target: T1, serotonin (5-HT) reuptake (Rattus norvegicus, UniProt P31652); assay: Inhibition of serotonin (5HT) reuptake in synaptosomes from rat brain; format: biochemical; conditions: test concentration of 10 μM; read-out: 5-HT (inhibition of reuptake of serotonin, % inhibition)
T1 construct: synaptosomes are freshly isolated from areas of the rat brain; from tissue; host or cells: rat brain synaptosomes (P2 fraction)
Summary of the method: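 Compounds screened at 10 μM and reported as percent inhibition of serotonin uptake. Uptake measured in a freshly prepared P2 synaptosomal fraction from rat brain.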

[2] = biological target: T2, human bradykinin 1 receptor (B1R) (Homo sapiens, UniProt P46663); assay: Functional investigation on the human bradykinin 1 receptor (B1R), Ca2+ FLIPR assay in CHO K1 hB1R cells; format: cell-based; conditions: CHO-K1, B1R antagonism human; test substance 10 μM; Ca2+ FLIPR, CHO K1 hB1R cells; read-out: B1R Ant. h [10 μM] % Inhibition
T2 construct: expressed in transfected cells; host or cells: CHO K1 cells
T2 sequence (P46663 1-353): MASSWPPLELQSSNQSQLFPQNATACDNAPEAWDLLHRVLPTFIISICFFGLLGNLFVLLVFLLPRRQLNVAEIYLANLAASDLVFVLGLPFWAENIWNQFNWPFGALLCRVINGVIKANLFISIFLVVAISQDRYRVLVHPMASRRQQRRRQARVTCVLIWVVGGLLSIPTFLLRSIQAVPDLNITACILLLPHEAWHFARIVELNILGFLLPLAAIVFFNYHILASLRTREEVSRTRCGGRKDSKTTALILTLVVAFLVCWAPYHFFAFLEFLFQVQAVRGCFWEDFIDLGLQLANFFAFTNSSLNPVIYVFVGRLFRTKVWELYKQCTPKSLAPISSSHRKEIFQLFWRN
Summary of the method: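 Peak Ca2+-dependent fluorescence in B1R-transfected CHO K1 cells measures antagonism of an EC80 agonist challenge given 10-20 min after compound. Agonist is Lys-Des-Arg9-bradykinin for human, Des-Arg9-bradykinin for rat receptor.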

T1 sequence (P31652 whole entry): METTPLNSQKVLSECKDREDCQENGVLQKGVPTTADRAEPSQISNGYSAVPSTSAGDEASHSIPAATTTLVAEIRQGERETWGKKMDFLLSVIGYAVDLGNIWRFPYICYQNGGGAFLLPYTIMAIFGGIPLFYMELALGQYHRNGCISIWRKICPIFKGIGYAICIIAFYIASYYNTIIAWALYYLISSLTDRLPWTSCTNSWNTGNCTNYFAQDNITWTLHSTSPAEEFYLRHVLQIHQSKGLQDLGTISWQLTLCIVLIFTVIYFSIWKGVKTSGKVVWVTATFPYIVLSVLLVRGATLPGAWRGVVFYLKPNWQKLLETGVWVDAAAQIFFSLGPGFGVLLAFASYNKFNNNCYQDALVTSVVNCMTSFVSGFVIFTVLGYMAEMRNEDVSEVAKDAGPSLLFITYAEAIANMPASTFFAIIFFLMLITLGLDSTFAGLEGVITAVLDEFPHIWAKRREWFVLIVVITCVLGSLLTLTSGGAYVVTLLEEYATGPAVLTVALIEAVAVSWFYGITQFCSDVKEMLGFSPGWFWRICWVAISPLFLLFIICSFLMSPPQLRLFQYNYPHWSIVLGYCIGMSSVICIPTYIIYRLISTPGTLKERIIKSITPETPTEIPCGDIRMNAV

## COc1ccc(S(=O)(=O)N2CCCCC2COCC(=O)NCCC2CCC(C(c3cccs3)N(C)C)CC2)cc1 (centres unmarked) [Example 30, N-(2-(4-((dimethylamino)(thiophen-2-yl)methyl)cyclohexyl)ethyl)-2-((1-(4-methoxyphenylsulfonyl)piperidin-2-yl)methoxy)acetamide]
[1]
  inhibition at 10 µM: 98%
[2]
  inhibition at 10 µM: 81%

## COc1cc(C)c(S(=O)(=O)N2CCC(OCC(=O)NCCC3CCC(C(c4cccs4)N(C)C)CC3)C2)c(C)c1 (centres unmarked) [Example 199, N-(2-(4-((dimethylamino)(thiophen-2-yl)methyl)cyclohexyl)ethyl)-2-(1-(4-methoxy-2,6-dimethylphenylsulfonyl)pyrrolidin-3-yloxy)acetamide]
[1]
  inhibition at 10 µM: 96%
[2]
  inhibition at 10 µM: 104%

## CN(C)C(c1cccc(F)c1)C1CCC(CCNC(=O)COCCN(C)S(=O)(=O)c2c(Cl)cc(Cl)cc2Cl)CC1 (centres unmarked) [Example 174, N-(2-(4-((dimethylamino)(3-fluorophenyl)methyl)cyclohexyl)ethyl)-2-(2-(2,4,6-trichloro-N-methylphenylsulfonamido)ethoxy)acetamide]
[1]
  inhibition at 10 µM: 97%
[2]
  inhibition at 10 µM: 103%

## CN(C)C(c1ccccc1)C1CCC(CNC(=O)COCC2CCCN2S(=O)(=O)c2ccc(Cl)c(Cl)c2)CC1 (centres unmarked) [Example 18, 2-((1-(3,4-dichlorophenylsulfonyl)pyrrolidin-2-yl)methoxy)-N-((4-((dimethylamino)(phenyl)methyl)cyclohexyl)methyl)acetamide]
[1]
  inhibition at 10 µM: 95%
[2]
  inhibition at 10 µM: 62%

## CN(C)C(c1cccc(F)c1)C1CCC(NC(=O)COCCN(C)S(=O)(=O)c2c(Cl)cccc2Cl)CC1 (centres unmarked) [Example 171, 2-(2-(2,6-dichloro-N-methylphenylsulfonamido)ethoxy)-N-(4-((dimethylamino)(3-fluorophenyl)methyl)cyclohexyl)acetamide]
[1]
  inhibition at 10 µM: 78%
[2]
  inhibition at 10 µM: 68%

## COc1cc(C)c(S(=O)(=O)N2CCC(OCC(=O)NC3CCC(C(c4ccccc4)N(C)C)CC3)C2)c(C)c1 (centres unmarked) [Example 165, N-(4-((dimethylamino)(phenyl)methyl)cyclohexyl)-2-(1-(4-methoxy-2,6-dimethylphenylsulfonyl)pyrrolidin-3-yloxy)acetamide]
[1]
  inhibition at 10 µM: 20%
[2]
  inhibition at 10 µM: 98%

## CN(C)C(c1cccc(F)c1)C1CCC(CCNC(=O)COCC2CCCCN2S(=O)(=O)c2ccc(Cl)c(Cl)c2)CC1 (centres unmarked) [Example 147, 2-((1-(3,4-dichlorophenylsulfonyl)piperidin-2-yl)methoxy)-N-(2-(4-((dimethylamino)(3-fluorophenyl)methyl)cyclohexyl)ethyl)acetamide]
[1]
  inhibition at 10 µM: 96%
[2]
  inhibition at 10 µM: 52%

## COc1cc(C)c(S(=O)(=O)N2CCCC(OCC(=O)NCC3CCC(C(c4cccc(F)c4)N(C)C)CC3)C2)c(C)c1C (centres unmarked) [Example 145, N-((4-((dimethylamino)(3-fluorophenyl)methyl)cyclohexyl)methyl)-2-(1-(4-methoxy-2,3,6-trimethylphenylsulfonyl)piperidin-3-yloxy)acetamide]
[1]
  inhibition at 10 µM: 91%
[2]
  inhibition at 10 µM: 12%

## CN(C)C(c1cccs1)C1CCC(CCNC(=O)COCCN(C)S(=O)(=O)c2cccc(C(F)(F)F)c2)CC1 (centres unmarked) [Example 32, N-(2-(4-((dimethylamino)(thiophen-2-yl)methyl)cyclohexyl)ethyl)-2-(2-(N-methyl-3-(trifluoromethyl)phenylsulfonamido)ethoxy)acetamide]
[1]
  inhibition at 10 µM: 97%
[2]
  inhibition at 10 µM: 32%

## CN(C)C(c1ccccc1)C1CCC(NC(=O)COCCN(C)S(=O)(=O)c2ccc(Cl)cc2Cl)CC1 (centres unmarked) [Example 33, 2-(2-(2,4-dichloro-N-methylphenylsulfonamido)ethoxy)-N-(4-((dimethylamino)(phenyl)methyl)cyclohexyl)acetamide]
[1]
  inhibition at 10 µM: 73%
[2]
  inhibition at 10 µM: 77%

## CN(C)C(c1cccs1)C1CCC(CNC(=O)COC2CCN(S(=O)(=O)c3cccc(C(F)(F)F)c3)C2)CC1 (centres unmarked) [Example 25, N-((4-((dimethylamino)(thiophen-2-yl)methyl)cyclohexyl)methyl)-2-(1-(3-(trifluoromethyl)phenylsulfonyl)pyrrolidin-3-yloxy)acetamide]
[1]
  inhibition at 10 µM: 82%
[2]
  inhibition at 10 µM: -6%

## COc1cc(C)c(S(=O)(=O)N2CCCC(OCC(=O)NC3CCC(C(c4cccs4)N(C)C)CC3)C2)c(C)c1C (centres unmarked) [Example 144, N-(4-((dimethylamino)(thiophen-2-yl)methyl)cyclohexyl)-2-(1-(4-methoxy-2,3,6-trimethylphenylsulfonyl)piperidin-3-yloxy)acetamide]
[1]
  inhibition at 10 µM: 87%
[2]
  inhibition at 10 µM: 20%

## COc1cc(C)c(S(=O)(=O)N2CCC(OCC(=O)NCC3CCC(C(c4ccccc4)N(C)C)CC3)C2)c(C)c1 (centres unmarked) [Example 173, N-((4-((dimethylamino)(phenyl)methyl)cyclohexyl)methyl)-2-(1-(4-methoxy-2,6-dimethylphenylsulfonyl)pyrrolidin-3-yloxy)acetamide]
[1]
  inhibition at 10 µM: 95%
[2]
  inhibition at 10 µM: 94%

Reference: patent US8106055B2, “Substituted amide compounds” (Gruenenthal GmbH, priority 2007, dated 2012)
